The record followed here is patent publication US11254663B2 (BRISTOL-MYERS SQUIBB COMPANY, priority 2019, dated 2022).

A word on the EC50: it is the concentration giving half of the maximal effect.

The target in this experiment is FXR (Homo sapiens (Human), UniProt Q96RI1). The experiment can be described thus: transient human FXR/Gal4-luciferase reporter assay. In kind it is cell-based. The settings on record: Gal4-hFXR fusion construct, HEK293 reporter cells; response relative to 8 μM GW-4064. The essentials: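 Compound exposure ran overnight at 37 °C and activity was measured as luminescence with Steady-Glo reagent. The cells were a HEK293 line stably expressing firefly luciferase under five Gal4 response elements. They were transiently transfected, one night beforehand, with a plasmid encoding Gal4 DNA-binding domain fused to the human FXR ligand-binding domain.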
Sequence of FXR (Q96RI1 262-486): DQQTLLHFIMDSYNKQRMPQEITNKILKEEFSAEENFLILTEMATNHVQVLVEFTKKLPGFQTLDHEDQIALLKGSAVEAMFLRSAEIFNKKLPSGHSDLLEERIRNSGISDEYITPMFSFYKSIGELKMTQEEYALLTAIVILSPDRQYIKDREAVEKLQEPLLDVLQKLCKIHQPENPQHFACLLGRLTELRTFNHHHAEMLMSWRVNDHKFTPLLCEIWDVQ
On the technique in general: In a reporter assay the amount or activity of a reporter protein is the signal.
`Cc1cnc(-c2cccc(N(CC34CCC(c5nc(C6CC6)no5)(CC3)CC4)C(=O)C34CC(F)(C3)C4)c2)cn1` [Example 310, N-((4-(3-cyclopropyl-1,2,4-oxadiazol-5-yl)bicyclo[2.2.2]octan-1-yl)methyl)-3-fluoro-N-(3-(5-methylpyrazin-2-yl)phenyl)bicyclo[1.1.1]pentane-1-carboxamide] returned an EC50 of 59 nM. Molecule `N#Cc1ccc(-c2cccc(N(CC34CCC(c5nc(C6CC6)no5)(CC3)CC4)C(=O)C34CC(F)(C3)C4)c2)c2cccnc12` [Example 311, N-(3-(8-cyanoquinolin-5-yl)phenyl)-N-((4-(3-cyclopropyl-1,2,4-oxadiazol-5-yl)bicyclo[2.2.2]octan-1-yl)methyl)-3-fluorobicyclo[1.1.1]pentane-1-carboxamide] had an EC50 of 662 nM. With `Cc1c(-c2cccc(N(CC34CCC(c5nc(C6CC6)no5)(CC3)CC4)C(=O)C34CC(F)(C3)C4)c2)cn2ncnc2c1C` [Example 312, N-((4-(3-cyclopropyl-1,2,4-oxadiazol-5-yl)bicyclo[2.2.2]octan-1-yl)methyl)-N-(3-(7,8-dimethyl-[1,2,4]triazolo[1,5-a]pyridin-6-yl)phenyl)-3-fluorobicyclo[1.1.1]pentane-1-carboxamide] the figure was 916 nM; with `Cn1ncc2cc(C#N)c(-c3cccc(N(CC45CCC(c6nc(C7CC7)no6)(CC4)CC5)C(=O)C45CC(F)(C4)C5)c3)nc21` [Example 313, N-(3-(5-cyano-1-methyl-1H-pyrazolo[3,4-b]pyridin-6-yl)phenyl)-N-((4-(3-cyclopropyl-1,2,4-oxadiazol-5-yl)bicyclo[2.2.2]octan-1-yl)methyl)-3-fluorobicyclo[1.1.1]pentane-1-carboxamide], 194 nM.

Molecule `N#Cc1cnn2c(-c3cccc(N(CC45CCC(c6nc(C7CC7)no6)(CC4)CC5)C(=O)C45CC(F)(C4)C5)c3)cnc2c1` [Example 314, N-(3-(7-cyanoimidazo[1,2-b]pyridazin-3-yl)phenyl)-N-((4-(3-cyclopropyl-1,2,4-oxadiazol-5-yl)bicyclo[2.2.2]octan-1-yl)methyl)-3-fluorobicyclo[1.1.1]pentane-1-carboxamide] registered an EC50 of 504 nM. In turn, `O=C(N(CC12CCC(c3nc(C4CC4)no3)(CC1)CC2)c1cccc(-c2nc(Cl)nn3cccc23)c1)C12CC(F)(C1)C2` [Example 315, N-(3-(2-chloropyrrolo[2,1-f][1,2,4]triazin-4-yl)phenyl)-N-((4-(3-cyclopropyl-1,2,4-oxadiazol-5-yl)bicyclo[2.2.2]octan-1-yl)methyl)-3-fluorobicyclo[1.1.1]pentane-1-carboxamide] registered an EC50 of 913 nM.

With `N#Cc1cc2sccc2nc1-c1cccc(N(CC23CCC(c4nc(C5CC5)no4)(CC2)CC3)C(=O)C23CC(F)(C2)C3)c1` [Example 316, N-(3-(6-cyanothieno[3,2-b]pyridin-5-yl)phenyl)-N-((4-(3-cyclopropyl-1,2,4-oxadiazol-5-yl)bicyclo[2.2.2]octan-1-yl)methyl)-3-fluorobicyclo[1.1.1]pentane-1-carboxamide], the midpoint of the response, the EC50, lay at 138 nM. Next, `O=C(N(CC12CCC(c3nc(C4CC4)no3)(CC1)CC2)c1cccc(-c2cc(F)c3nccn3c2)c1)C12CC(F)(C1)C2` [Example 317, N-((4-(3-cyclopropyl-1,2,4-oxadiazol-5-yl)bicyclo[2.2.2]octan-1-yl)methyl)-3-fluoro-N-(3-(8-fluoroimidazo[1,2-a]pyridin-6-yl)phenyl)bicyclo[1.1.1]pentane-1-carboxamide]: 887 nM; `O=C(N(CC12CCC(c3nc(C4CC4)no3)(CC1)CC2)c1cccc(-c2cnc3cccnn23)c1)C12CC(F)(C1)C2` [Example 318, N-((4-(3-cyclopropyl-1,2,4-oxadiazol-5-yl)bicyclo[2.2.2]octan-1-yl)methyl)-3-fluoro-N-(3-(imidazo[1,2-b]pyridazin-3-yl)phenyl)bicyclo[1.1.1]pentane-1-carboxamide]: 172 nM; `Cc1cnn2c(-c3cccc(N(CC45CCC(c6nc(C7CC7)no6)(CC4)CC5)C(=O)C45CC(F)(C4)C5)c3)cnc2c1` [Example 319, N-((4-(3-cyclopropyl-1,2,4-oxadiazol-5-yl)bicyclo[2.2.2]octan-1-yl)methyl)-3-fluoro-N-(3-(7-methylimidazo[1,2-b]pyridazin-3-yl)phenyl)bicyclo[1.1.1]pentane-1-carboxamide]: 161 nM. Next, `Cc1cn2cc(-c3cccc(N(CC45CCC(c6nc(C7CC7)no6)(CC4)CC5)C(=O)C45CC(F)(C4)C5)c3)c(C)cc2n1` [Example 320, N-((4-(3-cyclopropyl-1,2,4-oxadiazol-5-yl)bicyclo[2.2.2]octan-1-yl)methyl)-N-(3-(2,7-dimethylimidazo[1,2-a]pyridin-6-yl)phenyl)-3-fluorobicyclo[1.1.1]pentane-1-carboxamide]: 493 nM; `Cc1nc2c(C(F)(F)F)cc(-c3cccc(N(CC45CCC(c6nc(C7CC7)no6)(CC4)CC5)C(=O)C45CC(F)(C4)C5)c3)cn2n1` [Example 321, N-((4-(3-cyclopropyl-1,2,4-oxadiazol-5-yl)bicyclo[2.2.2]octan-1-yl)methyl)-3-fluoro-N-(3-(2-methyl-8-(trifluoromethyl)-[1,2,4]triazolo[1,5-a]pyridin-6-yl)phenyl) bicyclo[1.1.1]pentane-1-carboxamide]: 1460 nM. Next, `Cc1cn2cc(-c3cccc(N(CC45CCC(c6nc(C7CC7)no6)(CC4)CC5)C(=O)C45CC(F)(C4)C5)c3)cc(C)c2n1` [Example 322, N-((4-(3-cyclopropyl-1,2,4-oxadiazol-5-yl)bicyclo[2.2.2]octan-1-yl)methyl)-N-(3-(2,8-dimethylimidazo[1,2-a]pyridin-6-yl)phenyl)-3-fluorobicyclo[1.1.1]pentane-1-carboxamide]: 270 nM; `O=C(N(CC12CCC(c3nc(C4CC4)no3)(CC1)CC2)c1cccc(-c2ccc3nncn3c2)c1)C12CC(F)(C1)C2` [Example 323, N-(3-([1,2,4]triazolo[4,3-a]pyridin-6-yl)phenyl)-N-((4-(3-cyclopropyl-1,2,4-oxadiazol-5-yl)bicyclo[2.2.2]octan-1-yl)methyl)-3-fluorobicyclo[1.1.1]pentane-1-carboxamide]: 1630 nM. Turning to `Cc1nc2ccc(-c3cccc(N(CC45CCC(c6nc(C7CC7)no6)(CC4)CC5)C(=O)C45CC(F)(C4)C5)c3)cn2n1` [Example 324, N-((4-(3-cyclopropyl-1,2,4-oxadiazol-5-yl)bicyclo[2.2.2]octan-1-yl)methyl)-3-fluoro-N-(3-(2-methyl-[1,2,4]triazolo[1,5-a]pyridin-6-yl)phenyl)bicyclo[1.1.1]pentane-1-carboxamide], the EC50 came out at 250 nM. As for `Cc1ccc(-c2cccc(N(CC34CCC(c5nc(C6CC6)no5)(CC3)CC4)C(=O)C34CC(F)(C3)C4)c2)nc1` [Example 325, N-((4-(3-cyclopropyl-1,2,4-oxadiazol-5-yl)bicyclo[2.2.2]octan-1-yl)methyl)-3-fluoro-N-(3-(5-methylpyridin-2-yl)phenyl)bicyclo[1.1.1]pentane-1-carboxamide], a half-maximal response (EC50) required 24 nM. Consider `O=C(N(CC12CCC(c3nc(C4CC4)no3)(CC1)CC2)c1cccc(-c2cc(Br)cn3ncnc23)c1)C12CC(F)(C1)C2` [Example 326, N-(3-(6-bromo-[1,2,4]triazolo[1,5-a]pyridin-8-yl)phenyl)-N-((4-(3-cyclopropyl-1,2,4-oxadiazol-5-yl)bicyclo[2.2.2]octan-1-yl)methyl)-3-fluorobicyclo[1.1.1]pentane-1-carboxamide], for which the EC50 came out at 782 nM. With `Cc1cc(-c2cccc(N(CC34CCC(c5nc(C6CC6)no5)(CC3)CC4)C(=O)C34CC(F)(C3)C4)c2)nc2scnc12` [Example 327, N-((4-(3-cyclopropyl-1,2,4-oxadiazol-5-yl)bicyclo[2.2.2]octan-1-yl)methyl)-3-fluoro-N-(3-(7-methylthiazolo[5,4-b]pyridin-5-yl)phenyl)bicyclo[1.1.1]pentane-1-carboxamide] the figure was 303 nM; with `N#Cc1cc2c(nc1-c1cccc(N(CC34CCC(c5nc(C6CC6)no5)(CC3)CC4)C(=O)C34CC(F)(C3)C4)c1)CCOC2` [Example 328, N-(3-(3-cyano-7,8-dihydro-5H-pyrano[4,3-b]pyridin-2-yl)phenyl)-N-((4-(3-cyclopropyl-1,2,4-oxadiazol-5-yl)bicyclo[2.2.2]octan-1-yl)methyl)-3-fluorobicyclo[1.1.1]pentane-1-carboxamide], 339 nM. Molecule `O=C(N(CC12CCC(c3nc(C4CC4)no3)(CC1)CC2)c1cccc(-c2cnc3cc(Cl)cnn23)c1)C12CC(F)(C1)C2` [Example 329, N-(3-(7-chloroimidazo[1,2-b]pyridazin-3-yl)phenyl)-N-((4-(3-cyclopropyl-1,2,4-oxadiazol-5-yl)bicyclo[2.2.2]octan-1-yl)methyl)-3-fluorobicyclo[1.1.1]pentane-1-carboxamide] had an EC50 of 222 nM.

Molecule `O=C(N(CC12CCC(c3nc(C4CC4)no3)(CC1)CC2)c1cccc(-c2cccn3ccnc23)c1)C12CC(F)(C1)C2` [Example 330, N-((4-(3-cyclopropyl-1,2,4-oxadiazol-5-yl)bicyclo[2.2.2]octan-1-yl)methyl)-3-fluoro-N-(3-(imidazo[1,2-a]pyridin-8-yl)phenyl)bicyclo[1.1.1]pentane-1-carboxamide] yielded an EC50 of 392 nM.

The molecule `O=C(N(CC12CCC(c3nc(C4CC4)no3)(CC1)CC2)c1cccc(-c2ccc3nc(O)ccc3c2)c1)C12CC(F)(C1)C2` [Example 331, N-((4-(3-cyclopropyl-1,2,4-oxadiazol-5-yl)bicyclo[2.2.2]octan-1-yl)methyl)-3-fluoro-N-(3-(2-hydroxyquinolin-6-yl)phenyl)bicyclo[1.1.1]pentane-1-carboxamide] returned an EC50 of 231 nM. `O=C1Cc2cc(-c3cccc(N(CC45CCC(c6nc(C7CC7)no6)(CC4)CC5)C(=O)C45CC(F)(C4)C5)c3)ccc2N1` [Example 332, N-((4-(3-cyclopropyl-1,2,4-oxadiazol-5-yl)bicyclo[2.2.2]octan-1-yl)methyl)-3-fluoro-N-(3-(2-oxoindolin-5-yl)phenyl)bicyclo[1.1.1]pentane-1-carboxamide] yielded an EC50 of 158 nM.
